The source made the active and inactive calls. No cut-off for these calls is given here. Where a SMILES comes first, the peptide text is derived from it.
Assays:
[1] = target: Replicase polyprotein 1ab (Severe acute respiratory syndrome coronavirus 2) (UniProt P0DTD1); assay: Inhibition of SARS-CoV-2 MPro using protease substrate at 1 uM preincubated with enzyme for 10 mins followed by substrate addition and measured after 5 mins by FRET based assay; details: time 15.0 min
[2] = target: T1, Cathepsin K (Homo sapiens, UniProt P43235); assay: Inhibition of human Cathepsin K at 20 uM measured after 30 mins by fluorescence based microplate reader analysis relative to control; assay type: toxicity; details: human Cathepsin K enzyme
T1 sequence (P43235 whole entry): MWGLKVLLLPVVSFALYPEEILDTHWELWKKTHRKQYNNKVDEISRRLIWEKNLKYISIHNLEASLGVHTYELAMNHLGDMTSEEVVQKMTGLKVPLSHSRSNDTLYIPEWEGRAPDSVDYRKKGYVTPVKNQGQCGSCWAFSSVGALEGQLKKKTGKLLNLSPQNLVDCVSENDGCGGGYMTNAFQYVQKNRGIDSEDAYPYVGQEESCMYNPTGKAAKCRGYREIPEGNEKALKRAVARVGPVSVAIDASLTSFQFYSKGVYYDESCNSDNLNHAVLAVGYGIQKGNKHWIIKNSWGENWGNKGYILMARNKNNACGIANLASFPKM

[3] = system: SARS-CoV-2; assay: Antiviral activity against SARS-CoV-2 infected in African green monkey Vero E6 cells assessed as inhibition of viral infection preincubated for 1 hr followed by incubation in methylcellulose medium for 25 to 26 hrs by TrueBlue based EliSpot analysis; assay type: functional, organism-based; details: Severe acute respiratory syndrome coronavirus 2, Vero C1008
[4] = Cytotoxicity against African green monkey Vero E6 cells assessed as cell growth inhibition measured after 48 hrs by CCK8 assay; assay type: toxicity, cell-based, Vero C1008; details: chlorocebus sabaeus
[5] = target: Replicase polyprotein 1ab (Severe acute respiratory syndrome coronavirus 2, UniProt P0DTD1); assay: Inhibition of SARS-CoV-2 MPro using protease substrate preincubated with enzyme for 10 mins followed by substrate addition and measured after 5 mins by FRET based assay
[6] = target: Replicase polyprotein 1ab (Severe acute respiratory syndrome coronavirus 2) (UniProt P0DTD1); assay: Inhibition of SARS-CoV-2 MPro using protease substrate at 5 uM preincubated with enzyme for 10 mins followed by substrate addition and measured after 5 mins by FRET based assay; details: time 15.0 min
[7] = target: Replicase polyprotein 1ab (Severe acute respiratory syndrome coronavirus 2) (UniProt P0DTD1); assay: Inhibition of SARS-CoV-2 MPro using protease substrate at 5 uM preincubated with enzyme for 10 mins followed by substrate addition and measured after 5 mins in presence of 4 mM DTT by FRET based assay; details: time 15.0 min
[8] = target: Cathepsin B (Homo sapiens, UniProt P07858); assay: Inhibition of human Cathepsin B at 20 uM measured after 30 mins by fluorescence based microplate reader analysis relative to control; assay type: toxicity; details: human Cathepsin B enzyme
[9] = target: T1, Cathepsin K; assay: Inhibition of human Cathepsin K measured after 30 mins by fluorescence based microplate reader analysis relative to control; assay type: toxicity
[10] = system: SARS-CoV-2; assay: Antiviral activity against SARS-CoV-2; assay type: functional, organism-based; details: Severe acute respiratory syndrome coronavirus 2
[11] = target: Replicase polyprotein 1ab (Severe acute respiratory syndrome coronavirus 2) (UniProt P0DTD1); assay: Covalent inhibition of SARS-Cov-2 MPro using protease substrate at 1 uM preincubated with enzyme for 5 to 80 mins followed by substrate addition and measured every 10s for 10 mins by FRET based assay; details: time 15-90 min, TDE = time-dependent effect

Row | SMILES | inhibition [1] | IC50 [5] [µM] | other results
1 | O=c1c2ccccc2[se]n1C1CCNCC1 | 57.5% | – | –
2 | CC(C)(C)OC(=O)Nc1ccc(-n2[se]c3ccccc3c2=O)cc1 | 32.1% | – | –
3 | CC(C)(F)C[C@H](N[C@@H](c1ccc(-c2ccc(S(C)(=O)=O)cc2)cc1)C(F)(F)F)C(=O)NC1(C#N)CC1 [ODANACATIB] | – | – | inhibition at 0.5 h, 20 µM [2]: 96%
4 | O=c1c2ccccc2[se]n1Cc1ccccc1 | 95.5% | 0.364 | EC50 [3]: 8.01 µM; CC50 at 48 h [4]: > 100 µM
5 | O=C(Nc1ccc2c(=O)n(-c3ccccc3)[se]c2c1)c1cccs1 | 38.9% | – | –
6 | O=c1c2ccccc2[se]n1-c1ccc(NS(=O)(=O)C2CC2)cc1 | 89.7% | 0.528 | inhibition [6]: Active; inhibition [7]: inactive
7 | CC(C)(C)OC(=O)N1CCC(n2[se]c3ccccc3c2=O)CC1 | 85.2% | 0.417 | –
8 | CC(=O)N[C@@H](CC(C)C)C(=O)N[C@H](C(=O)N[C@H](C=O)CCCCN)C(C)C (Ac-Leu-Val-Lys-aldehyde) | – | – | inhibition at 0.5 h, 20 µM [8]: 99%
9 | Nc1ccc2[se]n(-c3ccccc3)c(=O)c2c1 | 21.8% | – | –
10 | CS(=O)(=O)Nc1ccc(C(=O)Nc2ccc(-n3[se]c4ccccc4c3=O)cc2)cc1 | inactive | – | –
11 | O=C(Nc1ccc(-n2[se]c3ccccc3c2=O)cc1)C1CC1 | 95.5% | 0.49 | –
12 | O=c1c2cc([N+](=O)[O-])ccc2[se]n1-c1ccccc1 | 18.8% | – | –
13 | O=c1c2ccccc2[se]n1C1CCN(S(=O)(=O)c2cccnc2)CC1 | 101% | 0.268 | IC50 [9]: > 20 µM; EC50 [3]: > 13.3 µM; inhibition at 0.5 h, 20 µM [8]: 4%; CC50 at 48 h [4]: 13.3 µM
14 | CCOC(=O)c1ccc(-n2[se]c3ccccc3c2=O)cc1 | 68.4% | – | inhibition at 0.5 h, 20 µM [2]: 5%
15 | O=c1c2ccccc2[se]n1Cc1ccncc1 | 97.4% | 0.287 | IC50 [9]: > 20 µM; EC50 [3]: > 20 µM; inhibition at 0.5 h, 20 µM [8]: 87%; CC50 at 48 h [4]: 55.7 µM; inhibition [6]: Active; inhibition at 0.5 h, 20 µM [2]: 42%; inhibition [7]: inactive
16 | NS(=O)(=O)c1ccc(C(=O)N2CCC(n3[se]c4ccccc4c3=O)CC2)cc1 | 88.3% | 0.55 | –
17 | O=c1c2ccc([N+](=O)[O-])cc2[se]n1-c1ccccc1 | 49.2% | – | –
18 | O=c1c2ccccc2[se]n1Cc1cccnc1 | 80.6% | 0.459 | –
19 | O=C(NC1CCCC1)C(=O)[C@H](C[C@@H]1CCNC1=O)NC(=O)[C@@H]1[C@H]2CCC[C@H]2CN1C(=O)[C@@H](NC(=O)C(F)(F)F)C1CCCCC1 | – | – | EC50 [10]: 0.095 µM
20 | CN(C)S(=O)(=O)Nc1ccc(-n2[se]c3ccccc3c2=O)cc1 | 91.8% | 0.233 | EC50 [3]: > 9.91 µM; CC50 at 48 h [4]: 9.91 µM; inhibition [6]: Active; inhibition [11]: Tde; inhibition [7]: inactive
21 | O=c1c2ccccc2[se]n1-c1ccccc1 [EBSELEN] | 88.3% | – | IC50 [9]: > 20 µM; EC50 [3]: 3.78 µM; inhibition at 0.5 h, 20 µM [8]: 62%; CC50 at 48 h [4]: 70.5 µM; inhibition [6]: Active; inhibition at 0.5 h, 20 µM [2]: 38%; inhibition [11]: Tde; inhibition [7]: inactive
22 | O=c1c2ccccc2[se]n1Cc1ccc2[nH]ccc2c1 | 32.6% | – | –
23 | O=c1c2ccccc2[se]n1C1CCN(S(=O)(=O)c2cccc(Cl)c2)CC1 | 24.7% | – | –
24 | O=C(OCc1ccccc1)N1CCC(n2[se]c3ccccc3c2=O)CC1 | 71.2% | – | –
25 | Nc1ccc2c(=O)n(-c3ccccc3)[se]c2c1 | 87% | 0.322 | inhibition [6]: Active; inhibition [7]: inactive
26 | O=c1c2ccccc2[se]n1C1CCN(S(=O)(=O)C2CC2)CC1 | 96.2% | 0.356 | EC50 [3]: > 20 µM; CC50 at 48 h [4]: 27.5 µM
27 | O=c1c2ccccc2[se]n1Cc1ccc2ccccc2c1 | 34.6% | – | –
28 | O=c1c2ccccc2[se]n1C1CCN(S(=O)(=O)c2cccs2)CC1 | 67.8% | – | –
